Assay results reported in article PMC6166404 (Journal of medicinal chemistry, 2018).

Legend:
[1] = biological target: MtbIMPDH2ΔCBS (Mycobacterium tuberculosis, UniProt P9WKI7, R252G); type: biochemical; conditions: for Ki: read-out: Ki,app MtbIMPDH2
[2] = tested on: Mtb strain SRMV2.6 (MtbIMPDH2/Y487C); type: cell-based, Mycobacterium tuberculosis
[3] = biological target: MtbIMPDH2/Y487C (Mycobacterium tuberculosis, UniProt P9WKI7, Y487C); type: biochemical

Compound: C[C@H](Oc1cccc(Cl)c1Cl)C(=O)Nc1ccc2oc(-c3cccc(OCC(=O)O)c3)nc2c1 [Compound 19b, (S)-2-(3-(5-(2-(2,3-Dichlorophenoxy)propanamido)benzo[d]oxazol-2-yl)phenoxy)acetic acid]
- fold loss in activity on translocating the alkoxy from para to meta position [1]: 4 fold

Compound: C[C@H](Oc1cccc(Cl)c1Cl)C(=O)Nc1ccc2oc(-c3ccc(C(=O)NN)cc3)nc2c1 [Compound 23, (S)-2-(2,3-Dichlorophenoxy)-N-(2-(4-(hydrazinecarbonyl)phenyl)benzo[d]oxazol-5-yl)propanamide]
- fold increase in activity on replacing the carboxylate [1]: 2 to 7 fold

Compound: C[C@H](Oc1cccc(Cl)c1Cl)C(=O)Nc1ccc2oc(-c3ccc(O)cc3)nc2c1 [Compound 8i, (S)-2-(2,3-Dichlorophenoxy)-N-(2-(4-hydroxyphenyl)benzo[d]oxazol-5-yl)propanamide]
- fold increase in MtbIMPDH2ΔCBS inhibitory activity compared to 2 [1]: 2 fold

Compound: COc1ccc(Cc2nc3cc(NC(=O)[C@H](C)Oc4cccc(Cl)c4Cl)ccc3o2)cc1 [Compound 15, (S)-2-(2,3-dichlorophenoxy)-N-(2-(4-methoxybenzyl)benzo[d]oxazol-5-yl)prop-anamide]
- factor of reduced activity compared to 8d [1]: 6

Compound: C[C@H](Oc1cccc(Cl)c1Cl)C(=O)Nc1ccc2oc(-c3ccc(OC(F)(F)F)cc3)nc2c1 [Compound 8e, (S)-2-(2,3-Dichlorophenoxy)-N-(2-(4-(trifluoromethoxy)phenyl)benzo[d]oxazol-5-yl)propanamide]
- fold increase in MtbIMPDH2ΔCBS inhibitory activity compared to 2 [1]: 7 fold

Compound: CCOC(=O)COc1ccc(-c2nc3cc(NC(=O)[C@H](C)Oc4cccc(Cl)c4Cl)ccc3o2)cc1 [Compound 18a, Ethyl (S)-2-(4-(5-(2-(2,3-dichlorophenoxy)propanamido)benzo[d]oxazol-2-yl)phenoxy)acetate]
- susceptibility of strain SRMV2.6 [2]: remained sensitive

Compound: C[C@H](Nc1cccc(F)c1F)C(=O)Nc1ccc2oc(-c3ccc(C#N)cc3)nc2c1 [Compound 17b, (S)-N-(2-(4-Cyanophenyl)benzo[d]oxazol-5-yl)-2-((2,3-difluorophenyl)amino)propanamide]
- Ratio Ki,app (Y487C) /Ki,app (WT) [3]: 60
- MIC SRMV2.6 [2]: >100 µM
- susceptibility of strain SRMV2.6 [2]: resistant

Compound: C[C@H](Oc1cccc(Cl)c1Cl)C(=O)Nc1ccc2oc(-c3ccc(/C(N)=N\O)cc3)nc2c1 [Compound 25, (S,Z)-2-(2,3-Dichlorophenoxy)-N-(2-(4-(N’-hydroxycarbamimidoyl)phenyl)benzo[d]oxazol-5-yl)propanamide]
- fold increase in activity on replacing the carboxylate [1]: 2 to 7 fold

Compound: C[C@H](Oc1cccc(Cl)c1Cl)C(=O)Nc1ccc2oc(-c3ccc(C(N)=O)cc3)nc2c1 [Compound 28, (S)-4-(5-(2-(2,3-Dichlorophenoxy)propanamido)benzo[d]oxazol-2-yl)benzamide]
- fold increase in activity on replacing the carboxylate [1]: 2 to 7 fold

Compound: C[C@H](Oc1cccc(Cl)c1Cl)C(=O)Nc1ccc2oc(-c3ccc(-c4noc(=O)[nH]4)cc3)nc2c1 [Compound 26, (S)-2-(2,3-Dichlorophenoxy)-N-(2-(4-(5-oxo-4,5-dihydro-1,2,4-oxadiazol-3-yl)phenyl)benzo-[d]oxazol-5-yl)propanamide]
- fold increase in activity on replacing the carboxylate [1]: 2 to 7 fold

Compound: C[C@H](Oc1cccc(Cl)c1Cl)C(=O)Nc1ccc2oc(-c3ccc(C#N)cc3)nc2c1 [Compound 8f, (S)-N-(2-(4-Cyanophenyl)benzo[d]oxazol-5-yl)-2-(2,3-dichlorophenoxy)propanamide]
- fold increase in MtbIMPDH2ΔCBS inhibitory activity compared to 2 [1]: 7 fold

Compound: COc1ccc(-c2nc3cc(NC(=O)[C@H](C)Oc4cccc(Cl)c4Cl)ccc3o2)cc1 [Compound 8d, (S)-2-(2,3-Dichlorophenoxy)-N-(2-(4-methoxyphenyl)benzo[d]oxazol-5-yl)propanamide]
- fold increase in MtbIMPDH2ΔCBS inhibitory activity compared to 2 [1]: 7 fold

Compound: C[C@H](Oc1cccc(Cl)c1Cl)C(=O)Nc1ccc2oc(-c3ccc(C(=O)O)cc3)nc2c1 [Compound 22, (S)-4-(5-(2-(2,3-Dichlorophenoxy)propanamido)benzo[d]oxazol-2-yl)benzoic acid]
- susceptibility of strain SRMV2.6 [2]: remained sensitive

Compound: COc1ccc(-c2nc3cc(NC(=O)[C@H](C)Oc4cccc(Cl)c4Cl)ccc3o2)cn1 [Compound 8c, (S)-2-(2,3-dichlorophenoxy)-N-(2-(6-methoxypyridin-3-yl)benzo[d]oxazol-5-yl)propanamide]
- fold increase in MtbIMPDH2ΔCBS inhibitory activity compared to 2 [1]: 5 fold

Compound: (S)-2-(2,3-Dichlorophenoxy)-N-(2-(2-oxo-1,2-dihydropyridin-4-yl)benzo[d]oxazol-5-yl)propanamide [Compound 30]
- fold reduction of MtbIMPDH2ΔCBS inhibitory activity compared to 2 [1]: 3 fold
- Ki [1]: 220 ± 6 nM

Compound: C[C@H](Oc1cccc(Cl)c1Cl)C(=O)Nc1ccc2oc(-c3ccc(-c4n[nH]c(=O)o4)cc3)nc2c1 [Compound 24, (S)-2-(2,3-Dichlorophenoxy)-N-(2-(4-(5-oxo-4,5-dihydro-1,3,4-oxadiazol-2-yl)phenyl)benzo[d]oxazol-5-yl)propanamide]
- fold increase in activity on replacing the carboxylate [1]: 2 to 7 fold

Compound: COc1ccc(OC(C)C(=O)Nc2ccc3oc(-c4ccncc4)nc3c2)cc1 (stereo not drawn) [Compound 1, reference compound]
- MIC SRMV2.6 [2]: >100 µM
- susceptibility of strain SRMV2.6 [2]: resistant

Compound: (S)-2-(2,3-Dichlorophenoxy)-N-(2-(2-methoxypyridin-4-yl)benzo[d]oxazol-5-yl)propanamide [Compound 8b]
- fold increase in MtbIMPDH2ΔCBS inhibitory activity compared to 2 [1]: 5 fold
- Ki [1]: 12 ± 0.1 nM

Compound: CCOC(=O)COc1cccc(-c2nc3cc(NC(=O)[C@H](C)Oc4cccc(Cl)c4Cl)ccc3o2)c1 [Compound 18b, Ethyl(S)-2-(3-(5-(2-(2,3-dichlorophenoxy)propanamido)benzo[d]oxazol-2-yl)phenoxy)acetate]
- fold loss in activity on translocating the alkoxy from para to meta position [1]: 4 fold
